{"source": "patent US20250296953A1", "about": "“3,4-THIAZOLO-STEROIDS AND METHODS OF MAKING AND USING THE SAME” (Arkansas State University - Jonesboro, priority 2018, published 2025)", "key": {"HCT-15 (Colon Cancer)": {"test_system": "HCT-15 (Colon Cancer)", "experiment": "NCI 60 one dose screen", "assay_type": "cell-based, human"}, "SF-539": {"test_system": "SF-539", "experiment": "NCI 60 one dose screen", "assay_type": "cell-based, human", "details": "one dose; CNS Cancer; SF-539"}, "[1]": {"test_system": "60 different human tumor cell lines", "details": "for TGI: five dose"}, "SK-MEL-28": {"test_system": "SK-MEL-28", "experiment": "Melanoma cytotoxicity assay (resazurin)", "assay_type": "cell-based", "details": "SK-MEL-28 melanoma cells, 24 hours with compound, resazurin; concentration not given", "in_short": "(§1)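 About 4000 cells per well were seeded and held 24 h at 37° C, 5% CO2, then exposed to compounds in triplicate for 24 h. Resazurin was added for 6 h and fluorescence read at 544/590 nm; IC50 came from sigmoidal fits of viability versus concentration.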"}, "SK-MEL-25": {"test_system": "SK-MEL-25", "experiment": "Melanoma cytotoxicity assay (resazurin)", "assay_type": "cell-based", "details": "SK-MEL-25 melanoma cells, 24 hours with compound, resazurin; concentration not given", "in_short": "as §1"}, "gliosarcoma (SF-539)": {"test_system": "gliosarcoma (SF-539)", "experiment": "NCI 60 five dose screen"}, "SR": {"test_system": "SR", "experiment": "NCI 60 five dose screen"}, "SF-295": {"test_system": "SF-295", "experiment": "NCI 60 one dose screen", "assay_type": "cell-based, human", "details": "one dose; CNS Cancer; SF-295"}}, "note": "Like-named read-outs stand apart in the source and are kept apart here."}
{"smiles": "C[C@]12CCc3sc(Nc4cccc(O)c4)nc3C1=CC[C@@H]1[C@@H]2CC[C@]2(C)C(=O)CC[C@@H]12", "note": "[IIa.17, (1S,2R,13R,14S,18S)-7-(3-hydroxyanilino)-2,18-dimethyl-6-thia-8-azapentacyclo[11.7.0.02,10.05,9.014,18]icosa-5(9),7,10-trien-17-one]", "values": [{"measurement": "Growth Percent", "setting": "HCT-15 (Colon Cancer)", "result": "−47.90", "unit": "%"}, {"measurement": "Growth Percent", "setting": "SF-539", "result": "−41.82", "unit": "%"}, {"measurement": "LC50", "setting": "[1]", "result": ">l.00E−4"}, {"measurement": "TGI", "setting": "[1]; 786-0 (Renal Cancer)", "result": "1.31E−5"}, {"measurement": "TGI", "setting": "[1]; A498 (Renal Cancer)", "result": ">1.00E−4"}, {"measurement": "TGI", "setting": "[1]; A549/ATCC (Non-small Cell Lung Cancer)", "result": ">1.00E−4"}, {"measurement": "TGI", "setting": "[1]; ACHN (Renal Cancer)", "result": "2.95E−5"}, {"measurement": "TGI", "setting": "[1]; CAKI-1 (Renal Cancer)", "result": "3.02E−5"}, {"measurement": "TGI", "setting": "[1]; CCRF-CEM (Leukemia)", "result": ">1.00E−4"}, {"measurement": "TGI", "setting": "[1]; COLO 205 (Colon Cancer)", "result": "3.74E−5"}, {"measurement": "TGI", "setting": "[1]; DU-145 (Prostate Cancer)", "result": "4.09E−5"}, {"measurement": "TGI", "setting": "[1]; EKVX (Non-small Cell Lung Cancer)", "result": ">1.00E−4"}, {"measurement": "TGI", "setting": "[1]; HCC-2998 (Colon Cancer)", "result": "4.48E−5"}, {"measurement": "TGI", "setting": "[1]; HCT-15 (Colon Cancer)", "result": "9.71E−6"}, {"measurement": "TGI", "setting": "[1]; HCT-116 (Colon Cancer)", "result": "4.17E−6"}, {"measurement": "TGI", "setting": "[1]; HOP-62 (Non-small Cell Lung Cancer)", "result": ">1.00E−4"}, {"measurement": "TGI", "setting": "[1]; HOP-92 (Non-small Cell Lung Cancer)", "result": "6.79E−5"}, {"measurement": "TGI", "setting": "[1]; HS 578T (Breast Cancer)", "result": ">1.00E−4"}, {"measurement": "TGI", "setting": "[1]; HT29 (Colon Cancer)", "result": "1.76E−5"}, {"measurement": "TGI", "setting": "[1]; IGROV1 (Ovarian Cancer)", "result": ">1.00E−4"}, {"measurement": "TGI", "setting": "[1]; K-562 (Leukemia)", "result": ">1.00E−4"}, {"measurement": "TGI", "setting": "[1]; KM12 (Colon Cancer)", "result": "2.94E−5"}, {"measurement": "TGI", "setting": "[1]; LOX IMVI (Melanoma)", "result": "1.08E−5"}, {"measurement": "TGI", "setting": "[1]; M14 (Melanoma)", "result": "5.09E−5"}, {"measurement": "TGI", "setting": "[1]; MALME-3M (Melanoma)", "result": ">1.00E−4"}, {"measurement": "TGI", "setting": "[1]; MCF7 (Breast Cancer)", "result": "3.28E−5"}, {"measurement": "TGI", "setting": "[1]; MDA-MB-231/ATCC (Breast Cancer)", "result": ">1.00E−4"}, {"measurement": "TGI", "setting": "[1]; MDA-MB-435 (Melanoma)", "result": ">1.00E−4"}, {"measurement": "TGI", "setting": "[1]; MDA-MB-468 (Breast Cancer)", "result": "1.46E−5"}, {"measurement": "TGI", "setting": "[1]; MOLT-4 (Leukemia)", "result": ">1.00E−4"}, {"measurement": "TGI", "setting": "[1]; NCI-H23 (Non-small Cell Lung Cancer)", "result": ">1.00E−4"}, {"measurement": "TGI", "setting": "[1]; NCI-H226 (Non-small Cell Lung Cancer)", "result": "4.50E−5"}, {"measurement": "TGI", "setting": "[1]; NCI-H322M (Non-small Cell Lung Cancer)", "result": ">1.00E−4"}, {"measurement": "TGI", "setting": "[1]; NCI-H460 (Non-small Cell Lung Cancer)", "result": "2.79E−5"}, {"measurement": "TGI", "setting": "[1]; NCI-H522 (Non-small Cell Lung Cancer)", "result": "2.36E−5"}, {"measurement": "TGI", "setting": "[1]; NCI/ADR-RES (Ovarian Cancer)", "result": ">1.00E−4"}, {"measurement": "TGI", "setting": "[1]; OVCAR-3 (Ovarian Cancer)", "result": "5.08E−5"}, {"measurement": "TGI", "setting": "[1]; OVCAR-4 (Ovarian Cancer)", "result": ">1.00E−4"}, {"measurement": "TGI", "setting": "[1]; OVCAR-5 (Ovarian Cancer)", "result": ">1.00E−4"}, {"measurement": "TGI", "setting": "[1]; OVCAR-8 (Ovarian Cancer)", "result": ">1.00E−4"}, {"measurement": "TGI", "setting": "[1]; PC-3 (Prostate Cancer)", "result": "6.37E−5"}, {"measurement": "TGI", "setting": "[1]; RXF 393 (Renal Cancer)", "result": "1.42E−5"}, {"measurement": "TGI", "setting": "[1]; SF-268 (CNS Cancer)", "result": "7.00E−5"}, {"measurement": "TGI", "setting": "[1]; SK-MEL-2 (Melanoma)", "result": "6.08E−5"}, {"measurement": "TGI", "setting": "[1]; SK-MEL-5 (Melanoma)", "result": "2.60E−5"}, {"measurement": "TGI", "setting": "[1]; SK-MEL-28 (Melanoma)", "result": ">1.00E−4"}, {"measurement": "TGI", "setting": "[1]; SK-OV-3 (Ovarian Cancer)", "result": ">1.00E−4"}, {"measurement": "TGI", "setting": "[1]; SN12C (Renal Cancer)", "result": "2.53E−5"}, {"measurement": "TGI", "setting": "[1]; SNB-19 (CNS Cancer)", "result": ">1.00E−4"}, {"measurement": "TGI", "setting": "[1]; SNB-75 (CNS Cancer)", "result": "7.25E−5"}, {"measurement": "TGI", "setting": "[1]; SW-620 (Colon Cancer)", "result": "1.56E−5"}, {"measurement": "TGI", "setting": "[1]; T-47D (Breast Cancer)", "result": ">1.00E−4"}, {"measurement": "TGI", "setting": "[1]; TK-10 (Renal Cancer)", "result": "5.48E−5"}, {"measurement": "TGI", "setting": "[1]; U251 (CNS Cancer)", "result": "1.93E−5"}, {"measurement": "TGI", "setting": "[1]; UACC-62 (Melanoma)", "result": "2.96E−4"}, {"measurement": "TGI", "setting": "[1]; UACC-257 (Melanoma)", "result": "9.45E−5"}, {"measurement": "TGI", "setting": "[1]; UO-31 (Renal Cancer)", "result": "1.94E−5"}, {"measurement": "SK-MEL-28 (% inhibition)", "setting": "SK-MEL-28", "result": 87, "unit": "%"}, {"measurement": "SK-MEL-25 (% inhibition)", "setting": "SK-MEL-25", "result": 79, "unit": "%"}, {"measurement": "GI50", "setting": "gliosarcoma (SF-539); Homo sapiens, SF-539", "result": 3.04, "unit": "µM"}, {"measurement": "CC50", "setting": "gliosarcoma (SF-539); Homo sapiens, SF-539, read-out: LC50", "result": 79.9, "unit": "µM"}, {"measurement": "TGI", "setting": "gliosarcoma (SF-539); SF-539 (CNS Cancer), five dose", "result": "1.33E−5"}, {"measurement": "GI50", "setting": "SR; Homo sapiens, SR", "result": 2.58, "unit": "µM"}, {"measurement": "CC50", "setting": "SR; Homo sapiens, SR, read-out: LC50", "result": "> 100", "unit": "µM"}, {"measurement": "TGI", "setting": "SR; SR (Leukemia), five dose", "result": ">1.00E−4"}, {"measurement": "Growth Percent", "setting": "SF-295", "result": "−47.70", "unit": "%"}]}
